In patent US6773702B2, “Use of combretastatin A4 and its prodrugs as an immune enhancing therapy” (OXiGENE, Inc., priority 2000, dated 2004):

Columns and labels:
[1] = test system: spleen cells isolated from BN7005-H1D2 tumor-bearing rats; test: In vitro proliferation of spleen cells from vaccinated tumor-bearing rats treated in vivo with CA4P (FIG. 1); parameters: species or system rat; conditions: CA4P 2 mg/kg 5 days a week + vaccination
[2] = test system: spleen cells isolated from BN7005-H1D2 tumor-bearing rats; test: In vitro proliferative response of spleen cells after 20 days of in vivo CA4P at 5 or 2 mg/kg (FIG. 2A); parameters: species or system rat; conditions: 20 days daily treatment, H1D2-WT or IL-18 transfectant stimulator cells
Procedure: FIG. 2A illustrates the in vitro immune proliferative response of spleen cells isolated from BN7005-H1D2 tumor-bearing rats previously treated with a combination of active immunomodulatory gene therapy (IL-18 and IL-12 transfected tumor cells) and CA4P (5 or 2 mg/kg) in vivo. The cells were stimulated with untransfected (H1D2-WT) tumor cells or IL-18 (H1D2-IL18) transfected tumor cells after 20 days of tumor growth.
Results of in vitro studies indicate that the dose of Combretastatin A4 Prodrug that is administered is critical for obtaining a specific immunological effect. […] Proliferation of spleen immune cells was monitored by 3-H-thymidine incorporation (CPM) after 5 days incubation. […] Eight μm cryosections were examined directly in a fluorescence microscope and vessel volume was determined (Springer, MP., Ip, TK., and Blau, HM). Angiogenesis monitored by perfusion with space-filling microbead suspension (Mol. Ther. 1: 82-87, 2000). […]
In a second experiment represented in FIG. 2A, wild type H1D2-WT or IL-18 transfected (H1D2-IL-18) cells were used as immune stimulants to assess the in vitro proliferative response of spleen cells isolated from tumor-bearing rats previously treated in vivo with 2 or 5 mg/kg combretastatin A4 prodrug for 20 days. The spleen cells were cultured in RPMI medium and their growth monitored by the incorporation of tritiated thymidine into DNA. […]

[3] = test system: spleen cells of tumor-free rats immunized with BN7005-H1D2-IL-12 and IL-18 cells; test: Proliferative T cell response (thymidine incorporation) after in vitro preincubation of spleen cells with CA4P; format: cell-based, rat
Source text: Macrophages were isolated as plastic-adherent spleen cells from tumor-free rats vaccinated with IL-18 and IL-12 transfected tumor cells. […] This effect is interpreted as due to a decrease of the suppressive effect of IL-12 and IL-18 activated macrophages on T cell responses.
The observation of selective macrophage toxicity is further supported by the observation that CA4P treatment of unseparated spleen cells recapitulates this anti-tumor immune response. FIG. 3 illustrates the in vitro immune proliferative response of unseparated spleen cells isolated from tumor-free rats previously vaccinated with IL-18 and IL-12 transfected tumor cells. Spleen cells were stimulated with untransfected (H1D2-WT) tumor cells (FIG. 3A) or the superantigen SEA polyclonal activator (FIG. 3B) after preincubation with or without CA4P (0.15 μg/ml).
As described in Table 1, spleen cells were isolated from tumor-free BN×WF hybrid rats immunized twice (1 week between vaccinations) with BN7005-H1D2 tumor cells producing IL-18 and IL-12, respectively. Macrophages were isolated from the sample by allowing isolated spleen cells to adhere to the plastic surface of 96-well microtiter plates, at which point the non-adherent cells were removed.
(§1) The purified adherent cells (6×10^5/microtiter well) were treated in vitro for 3 hours with 0.15 ug/ml CA4P before washing. […] These variables were used to choose an in vitro concentration that is equal to the average concentration in vivo after a 3 hour period. For example, after treatment with 2 mg/kg in vivo, the concentration would be a maximum of 0.18 ug/ml 1.5 hours later, and less than 1 ng/ml after 3 hours.
The proliferative response of 3×10^5 admixed non-adherent cells (e.g. T-cells) stimulated for 4 days with SEA (0.05 ng/ml) was estimated as in Example 1. […] This effect is interpreted as due to a decrease of the suppressive effect of the IL-12 and IL-18 activated macrophages on T cell responses. […]

[4] = test system: NO production by spleen cells of tumor-free immunized rats; test: NO production by spleen cells (Griess technique) after in vitro preincubation with CA4P; format: cell-based, rat; conditions: for Nitric oxide production into supernatant: unseparated spleen cells (L0), CA4-P 0.15 μg/ml preincubated 3 h
Procedure: One of the main suppressive molecules produced by macrophages is nitric oxide (NO) and direct assays of the generation of NO released into the medium of parallel spleen cell cultures (containing both adherent and nonadherent cells) after exposure to SEA and CA4P were performed as previously described (Hegardt et al, Cancer Immunol & Immunother (2001) 50: 491-501).
The proliferative response of 3×10^5 admixed non-adherent cells (e.g. T-cells) stimulated for 4 days with SEA (0.05 ng/ml) was estimated as in Example 1. […] This effect is interpreted as due to a decrease of the suppressive effect of the IL-12 and IL-18 activated macrophages on T cell responses. Direct assays of the generation of NO released into the medium of parallel […] spleen cell cultures after exposure to SEA and CA4P were performed as previously described (Hegardt et al, 2001).

[5] = Half-life and estimated in vivo concentration of CA4P
Procedure: as §1

[6] = cited from earlier work

SMILES: COc1ccc(/C=C\c2cc(OC)c(OC)c(OC)c2)cc1OP(=O)([O-])[O-].[Na+].[Na+] [CA4P, CA4 phosphate disodium salt]
- Rats responding to SEA ([1]; spleen cells challenged with SEA, 5 of 8 (untreated 13%)): 63%
- Samples responding to tumor antigen challenge ([1]; spleen cells stimulated with autologous tumor cells, 7 of 18 (immunization alone 8%)): 39%
- Proliferative response of spleen cells (3-H-thymidine incorporation) ([2]; CA4P 2 mg/kg): particularly effective in enhancing the anti-tumor immune response
- Proliferative response of spleen cells (3-H-thymidine incorporation) ([2]; CA4P 5 mg/kg): some enhancement of a proliferative response
- Proliferative T cell response (CPM thymidine incorporation) ([3]; Rat#1, adherent spleen cells (MO) preincubated 3 h with CA4-P 0.15 μg/ml, then L1 nonadherent cells + SEA 0.05 ng/ml, 4 days): 124K
- Animals with stimulating effect on proliferative response ([3]; parallel studies (FIG. 3), spleen cells stimulated with wild type tumor cells and SEA 0.1 ng/ml, CA4P 0.15 μg/ml): 3 of 4
- Enhancement of in vitro proliferative response of admixed non-adherent cells ([3]; preincubation of adherent cells (spleen macrophages) with CA4P): 2 fold
- Nitric oxide production into supernatant ([4]; Rat#1, Medium): 7 µM
- Nitric oxide production into supernatant ([4]; Rat#1, SEA): 8 µM
- Nitric oxide production into supernatant ([4]; Rat#2, Medium): 6 µM
- Nitric oxide production into supernatant ([4]; Rat#2, SEA): 7 µM
- Animals with inhibitory effect on NO production ([4]; parallel studies (FIG. 3), spleen cells, SEA 0.1 ng/ml, CA4P 0.15 μg/ml): all 4
- Effect on NO produced ([4]; spleen cell cultures exposed to SEA and CA4P, 2 animals studied): significant reduction of NO produced
- Concentration in extracellular fluid ([5]; 1.5 hours after treatment with 2 mg/kg in vivo, calculated from half-life and extracellular fluid 16.6% of body weight): ≤ 180 ng/mL
- Concentration in extracellular fluid ([5]; 3 hours after treatment with 2 mg/kg in vivo, calculated): less than 1 ng/ml
- Solubility in water [6]: readily soluble in water
